3 molecules from patent publication US20200171042A1, “BRAIN-PENETRANT CHROMONE OXIME DERIVATIVE FOR THE THERAPY OF LEVODOPA-INDUCED DYSKINESIA” (Prexton Therapeutics SA, priority 2015, published 2020) can be followed below.

Structures are written as SMILES.

Series [1] concerns MPTP macaque model of Parkinson's disease. The series is described as follows: MPTP macaque model of advanced stages of PD. It counts as in vivo, Macaca fascicularis. On the procedure: The anti-parkinsonian efficacy of the compound of formula (I) according to the present invention (i.e., PXT002331) was evaluated in the 1-methyl-4-phenyl-1,2,3,6-tetrahydropyridine (MPTP) macaque model of Parkinson's disease (using macaques of the species Macaca fascicularis), which reproduces most of the clinical and pathological hallmarks of Parkinson's disease and is considered a “gold standard” (see Porras G et al., Cold Spring Harb Perspect Med., 2(3):a009308, 2012 and references cited therein for a general description of the MPTP model). […] The anti-parkinsonian efficacy of PXT002331 (25 mg/kg) was further evaluated in combination with low (suboptimal) doses of L-dopa (levodopa; 4-9 mg/kg) (see FIGS. 5B and 5C). In this model, levodopa methyl ester was administered sub-cutaneously together with a fixed dose of benserazide (50 mg total), a peripherally-acting levodopa decarboxylase inhibitor. Doses of PXT002331 were orally administered twice a day during 4 days, and assessment of parkinsonian scores took place at day 4 (between 1 and 2 h after L-dopa administration, i.e., between 2 and 3 h after PXT002331 administration). […] The results of a dose-response evaluation of the combination of PXT002331 (at doses from 2 mg/kg to 100 mg/kg) with L-dopa (low dose) are shown in FIG. 5D (the assessment of parkinsonian scores took place at day 4).

A further series concerns CLD MPTP macaque model. The series is described as follows: Variable Delayed Response (VDR) task, cognitive performance of CLD MPTP monkeys. The class given is in vivo, Macaca fascicularis. From the text:
Monkeys that receive chronic low doses of MPTP administration (CLD MPTP macaque model) develop cognitive impairment, as measured in the Variable Delayed Response (VDR) task. It was therefore decided to evaluate the cognitive impact of PXT002331 in these animals, in order to assess potential side effects on cognitive symptoms.

Series [2] has as its system CLD MPTP macaque model of early-stage PD. The series is described as follows: chronic low doses of MPTP (CLD MPTP) macaque model of early-stage PD. It counts as in vivo, Macaca fascicularis. On the procedure:
In this model, levodopa was administered orally as Madopar which contains benserazide hydrochloride (4:1 ratio of levodopa:benserazide), a peripherally-acting levodopa decarboxylase inhibitor. In this experiment, each monkey was equipped with a detector of movements and signals were collected with 24 light beams and a video track recorder in order to discriminate all types of movements. The movements of each monkey were quantified every 5 min using computer-based activity monitors. Total values are presented over 4 hours.

Series [3] can be described thus: in vivo pharmacokinetics in rats (plasma and brain exposure). Also noted: species or system male Sprague-Dawley rats. As to conditions: rat. The method, then: PXT002331 and PXT001858 were administered per os (p.o.) at 10 mg/kg to male Sprague-Dawley rats. Volume of administration was 10 ml/kg. In parallel, PXT002331 was also administered intravenously (i.v.) at 1 mg/kg, with a volume of administration of 2 ml/kg. Blood samples (200 μl) were collected at time ranging from 15 minutes to 24 hours for the p.o. administration and from 5 minutes to 24 hours for the i.v. administration in ice-cold tubes containing 0.2% K2EDTA. Tubes were centrifuged at 10,000 rpm for 5 minutes at 4° C. The plasma (supernatant) was separated in another tube and stored at −80° C. until analysis. Two groups of 3 animals were used for each route of administration: in one group, blood samples were collected to determine the kinetics of plasma exposure over a 24-hour period, and in the second group, blood and brain were collected at one terminal time point (0.5, 1.0, 1.5, 2.0, 4.0 hours) to determine the kinetics of brain exposure and brain/plasma ratio.
The respective parent compound (free base) was analysed in plasma samples and in brain homogenate using a LC-MS/MS method. Concentrations are expressed in ng/ml of plasma or in ng/g of brain tissue.

The subject of a further series is CaCo-2. The series is described as follows: intestinal absorption CaCo-2 (A-B, pgp). The class given is in vitro ADME. The settings on record: pgp. The method, then:
(§1) The in vitro ADME profile of PXT002331 was also very similar with reference to phase I metabolic stability: CL (h/r): 55/101 μl/min/mg protein and intestinal absorption: CaCo-2 (A-B, pgp): 4.11 .10-6 cm/s, no efflux.

A short description of series [4]: intestinal absorption CaCo-2 (A-B, pgp). As to conditions: human, Caco-2; A-B. The class given is in vitro ADME. On the procedure: as §1
Another series deals with human mGluR4 (Homo sapiens, UniProt Q14833). As to the kind of experiment: calcium assay, agonistic and/or positive allosteric modulator activity. The class given is cell-based. As to conditions: read-out: EC50 (corresponding to pEC50) (converted). On the procedure:
The compound of formula (I) according to the invention (i.e., PXT002331) was tested for its agonistic and/or positive allosteric modulator activity on human mGluR4 using the calcium assay described in Example 171 of WO 2011/051478.

The subject of series [5] is MPTP macaque model of L-DOPA-induced dyskinesia. As to the kind of experiment: MPTP macaque model of L-DOPA-induced dyskinesia (LID). It counts as in vivo. On the procedure:
Like PD patients, MPTP macaques experience side effects of their long-term L-DOPA therapy, including L-DOPA-induced dyskinesia (LID). This was the case with the MPTP macaques that were at an advanced stage of parkinsonism used in this experiment. PXT002331 was tested in these monkeys, using the dose of 25 mg/kg in combination with L-DOPA.
Moreover, this was observed as early as day 1, which corresponds to an acute administration of PXT002331, and is maintained after a sub-chronic treatment (twice daily for 8 consecutive days). Importantly, the efficacy of L-DOPA for reducing parkinsonian symptoms (tremor, posture, mobility) was maintained in association with PXT002331 dose, as shown in FIG. 9B.

Series [6] concerns UGT (UDP-Glucuronosyl transferase). The series is described as follows: in vitro glucuronidation in rat liver microsomes. It counts as in vitro ADME. The settings on record: in vitro in the presence of UGT. The method, then:
Despite their similar oral absorption, PXT002331 has a higher brain/plasma ratio (6.5 versus 2.0 at T=1.5 h; see FIG. 4) leading to a 3-fold improvement in the brain AUC when compared to PXT001858. A posteriori, one potential hypothesis might rely on the difference of phase II conjugation in the intestine and liver during oral absorption. […] Nonetheless, this difference observed in vitro cannot by itself explain the unexpected advantageous PK results obtained with PXT002331. The results obtained in these experiments are furthermore summarized in Tables 1 to 3 below and in FIGS. 1 to 4.
(In general: Liver microsomes are vesicles of endoplasmic reticulum, rich in cytochrome P450 enzymes.)

Another series is described as follows: plasma protein binding. The class given is in vitro ADME. As to conditions: read-out: plasma protein binding, free fraction.
The subject of the next series is MPTP macaques. The series is described as follows: general behavior, adverse events in MPTP macaques. The class given is in vivo, Macaca fascicularis. The settings on record: alone or with L-DOPA, even at high doses. The method, then: Adverse events and side effects of PXT002331 were analyzed during each study performed in macaques (see Example 3).
A short description of series [7]: phase I metabolic stability, CL (r). The class given is in vitro ADME. As to conditions: rat; r of CL (h/r). The method, then: as §1
The nature of a further series: solubility in water. The class given is physicochemical. The settings on record: as hydrochloride salt.
Series [8] is described as follows: phase I metabolic stability, CL (h). As to conditions: human; h of CL (h/r). The class given is in vitro ADME. On the procedure: as §1
Where [9] appears, read: p.o. 10 mg/kg, vehicle Tween-80/Ethanol/30% HPBCD (2/10/88).

Chain of human mGluR4 (Q14833 33-912): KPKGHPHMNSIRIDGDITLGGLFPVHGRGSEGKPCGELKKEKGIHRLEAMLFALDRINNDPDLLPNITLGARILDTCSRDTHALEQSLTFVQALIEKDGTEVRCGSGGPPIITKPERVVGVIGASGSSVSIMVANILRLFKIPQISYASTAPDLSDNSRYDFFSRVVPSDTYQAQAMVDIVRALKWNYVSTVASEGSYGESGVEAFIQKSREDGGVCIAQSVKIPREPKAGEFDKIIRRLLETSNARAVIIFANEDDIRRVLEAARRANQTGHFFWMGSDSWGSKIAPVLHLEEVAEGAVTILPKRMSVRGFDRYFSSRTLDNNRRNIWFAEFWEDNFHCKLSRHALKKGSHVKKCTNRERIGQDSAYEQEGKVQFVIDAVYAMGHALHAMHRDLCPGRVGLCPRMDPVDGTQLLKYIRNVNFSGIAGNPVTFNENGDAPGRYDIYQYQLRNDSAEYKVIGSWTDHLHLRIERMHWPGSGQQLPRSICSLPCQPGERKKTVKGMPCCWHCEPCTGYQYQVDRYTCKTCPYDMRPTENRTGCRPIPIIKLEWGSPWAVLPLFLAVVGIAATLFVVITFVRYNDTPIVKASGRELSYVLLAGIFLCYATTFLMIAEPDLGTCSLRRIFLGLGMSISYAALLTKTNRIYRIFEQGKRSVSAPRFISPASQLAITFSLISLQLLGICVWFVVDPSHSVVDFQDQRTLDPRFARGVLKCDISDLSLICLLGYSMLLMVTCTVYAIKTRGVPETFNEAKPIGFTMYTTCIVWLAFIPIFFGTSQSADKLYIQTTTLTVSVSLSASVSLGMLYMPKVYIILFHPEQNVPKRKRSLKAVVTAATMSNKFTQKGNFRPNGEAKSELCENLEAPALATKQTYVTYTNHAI

As for `N[C@@H](Cc1ccc(O)c(O)c1)C(=O)O` [L-DOPA, L-3,4-dihydroxyphenylalanine, reference compound], the “dyskinesia (mean dyskinesia score)” value in series [1] (highest doses of L-DOPA) is on record as “very mild”. The dyskinesia entry in series [1] (sub-optimal doses of L-DOPA) was “weak or absent”. Also, the “omissions in VDR task” value in the series with CLD MPTP macaque model (one out of four animals, optimal dose of L-DOPA alone) is given as approximately 100%. For the same molecule, the induction of dyskinesia entry in series [2] (L-DOPA alone, model of early stage PD) is on record as “did not induce dyskinesia”.

On to `O/N=c1\cc(-c2cc3sccc3cn2)oc2ccc(OCCN3CCOCC3)cc12` [PXT001858, reference compound], for which, in [3] (oral 10 mg/kg), the “Brain AUC inf” value worked out at 838 ng·h/g and the “Cmax (Brain)” value turned out to be 521 ng/G tissue.

Take `O/N=c1\cc(-c2cc3sccc3cn2)oc2ccc(CCCN3CCOCC3)cc12` [PXT002331, 6-(3-morpholin-4-yl-propyl)-2-(thieno[3,2-c]pyridin-6-yl)-4H-chromen-4-one oxime]: in the series on CaCo-2, the CaCo-2 efflux entry was “no efflux”. Moreover, in series [4], the Papp A→B (commonly the apparent permeability from the apical to the basolateral side of a cell layer) was determined as 4.11 ×10⁻⁶ cm/s. Moreover, the EC50 (as a rule, the concentration that produces a half-maximal response) at human mGluR4 was approximately 0.076 µM. Further, in series [5] (PXT002331 25 mg/kg + L-DOPA, 30 min before or same time, day 1 and day 8 (twice daily)), the “dyskinesia (mean dyskinesia score over 2 hours)” value is “clear reduction of dyskinesia”. Also, the “robustness: dyskinetic monkeys responding” value in series [5] (PXT002331 25 mg/kg + L-DOPA, N=4 dyskinetic animals) is “each and every dyskinetic monkey included in the study responded to treatment”. The “efficacy of L-DOPA for reducing parkinsonian symptoms (tremor, posture, mobility)” value in [5] (in association with PXT002331 25 mg/kg) is on record as “maintained”. Further, the “robustness: monkeys improving in parkinsonian score” value in [1] (PXT002331 25 mg/kg + low dose L-dopa, day 4) is reported as “all treated monkeys showed a significant improvement in parkinsonian score”. Moreover, the “parkinsonian score versus L-dopa (suboptimal dose) alone” value in series [1] (PXT002331 25 mg/kg p.o. twice a day 4 days + suboptimal L-dopa 4-9 mg/kg, day 4) is listed as “considerable improvement in parkinsonian score”. Also, the “anti-parkinsonian effect, dose-response evaluation” value in series [1] (PXT002331 2 to 100 mg/kg oral + L-dopa (low dose), day 4) is recorded as “highly potent anti-parkinsonian effect”. Also, the induction of dyskinesia entry in series [1] (PXT002331 alone, any of the doses tested, more advanced stages of PD) is reported as “did not induce dyskinesia”. Further, the “change of dyskinesia by PXT002331 treatment” value in series [1] (added to sub-optimal doses of L-DOPA, any dose tested) is reported as “not increased”. In series [1] (stand-alone treatment, p.o. twice a day for 4 days, score at day 4 over 2 h, n=7), the “anti-parkinsonian activity (parkinsonian score)” value is “potent anti-parkinsonian activity”. The “level of glucuronidation compared to PXT001858” value in series [6] is recorded as “much lower level of glucuronidation”. For the same molecule, the “worsening of cognitive performances in VDR task” value with CLD MPTP macaque model (PXT002331 25 mg/kg alone or in combination with L-DOPA, N=4) is “none of the treatments with PXT002331, alone or in combination with L-DOPA, induced any worsening of the cognitive performances”. Besides, in the series on CLD MPTP macaque model (one out of four animals, PXT002331 25 mg/kg added to optimal dose of L-DOPA), the “omission rate in VDR task, change on adding PXT002331” value is “decreased by half”. Moreover, the Kp at 1.5 h in [3] (male, Sprague-Dawley, brain, oral 10 mg/kg, T = 1.5 h, read-out: Brain/Plasma ratio (T = 1.5 h)) was determined as 6.5. Further, in series [3] (male, Sprague-Dawley, plasma, oral, p.o. 10 mg/kg vs i.v. 1 mg/kg), the bioavailability – broadly, dose-corrected exposure relative to a reference, in per cent – stood at 39%. In addition, the area under the curve AUC(0-inf) (usually total exposure, with the tail of the curve extrapolated) in series [3] (male, Sprague-Dawley, plasma, oral 10 mg/kg) came to 432 ng·h/mL. Also, in series [3] (oral 10 mg/kg), the “Brain AUC inf” value worked out at 2713 ng·h/g, the “Cmax (Brain)” value is on record as 818 ng/G tissue and the “improvement in brain AUC compared to PXT001858” value is on record as 3 fold. Besides, in [3] (setting [9]), the “plasma exposure AUC relative to PXT001858” value is 1.1 fold and the “plasma exposure Cmax relative to PXT001858” value amounted to 0.7 fold. Further, the induction of dyskinesia entry in series [2] (CLD MPTP macaques, PXT002331 alone or in combination with any doses of L-DOPA tested) is recorded as “no induction of dyskinesia”. In addition, the “robustness: monkeys responding in locomotor activity” value in series [2] (PXT002331 25 mg/kg + L-dopa) was “each and every monkey included in the study responded”. Further, in [2] (PXT002331 25 mg/kg oral + low or optimal dose of L-dopa (Madopar), total over 4 hours, N=5), the locomotor activity entry is reported as “significant improvement in locomotor activity”. For the same molecule, the induction of dyskinesia entry in series [2] (PXT002331 25 to 100 mg/kg + optimal (high) dose of L-dopa) is recorded as “without inducing dyskinesia”. The disability score result in series [2] (increasing doses of PXT002331 + L-dopa (optimal dose)) was “improvement in the disability score”. For the same molecule, the fraction unbound in the series “plasma protein binding” was less than 0.01. In the series with MPTP macaques, the “adverse change in behavior (circling, excitement, lethargy, sleepiness)” value is on record as “never induced any apparent adverse change in behavior”. Moreover, the intrinsic metabolic clearance (microsomal CLint) (usually a measure of how fast metabolising enzymes remove a compound, apart from limits set by blood flow) in [7] was found to be 101 µL/min/mg. Further, the solubility – broadly, the dissolved amount per volume that the medium holds – in the series “solubility in water” was more than 10000 µg/mL. Further, the microsomal CLint in [8] stood at 55 µL/min/mg.
